[ ]: non-standard residue; d: D form. Aib = CC(C)(N)C(=O)O

For data set [1], the system named is HT1080 cells. Nature of the data set: HT1080 matrigel invasion toward 10% FBS in Boyden chambers. The format is cell-based, human. The settings on record: 10 nM peptide plus 10% FBS, 6 hr, means of three independent experiments in triplicate. How it is done:
Cell migration in Boyden chambers was carried out for 4 hr at 37 °C in humidified air with 5% CO2, as described. Briefly, cell suspension (1 × 10^5 viable cells/mL serum free medium) was seeded in each upper chamber. Lower chambers were filled with DMEM alone, DMEM containing RI peptides, 10 nM fMLF, or 10% FBS with/without RI peptides. The two compartments were separated by 8 μm pore size polycarbonate filters (Neuroprobe) coated with 2.5 µg/mL vitronectin (Corning). For the invasion assays, 8 μm pore size filters were coated with 50 μg/filter matrigel (BD Biosciences) as previously described[40] and cells (3 × 10^4 viable cells/well) were allowed to invade matrigel for 6 hr at 37 °C, 5% CO2. In all cases, at the end of the assay, cells on the lower filter surface were fixed with ethanol, stained with haematoxylin and 10 random fields/filter were counted at 200× magnification. Each experiment was performed three times in triplicate.

Data set [2] relates to chondrosarcoma Sarc cells. Nature of the data set: Matrigel invasion kinetics, xCELLigence RTCA, Sarc. Format: cell-based, human. The conditions noted are these: 10 nM, 10% FBS, 20 hr. As for the experimental part:
This assay was performed using E-well plates and the xCELLigence RTCA technology as described. Bottom wells were coated with 20 µg/well matrigel diluted in serum free medium. Matrigel was allowed to polymerize for 1 hr at 37 °C prior to seeding cells (1 × 10^4 cells/well) suspended in growth medium plus/minus RI peptides. Cells that cross matrigel adhere to the bottom of plates causing impedance changes that are proportional to the number of invading cells, and are expressed as a cell index value. Matrigel invasion was monitored for 20 hr. The experiments were performed three times in quadruplicate.

For data set [3], the system named is cell proliferation. Nature of the data set: Cell proliferation, xCELLigence RTCA. Format: cell-based. The settings on record: 10 µM in growth medium, 85 hr, replaced every 24 hr. How it is done: Cell proliferation was assessed using the xCELLigence RTCA technology as described. Cells (2 × 10^3/well) were seeded in E-well plates in growth medium and left to growth for 85 hr in the presence or the absence of 10 µM RI-3. For MTS assay, cells seeded on plates in growth medium plus/minus 10 µM RI-3, were allowed to proliferate at 37 °C in 5% CO2 and the absorbance of adherent cells stained with tetrazolium/formazan was assessed with a microplate reader. In both cases, medium with or without RI-3 was replaced every 24 hr. Data are the means ± SD of three independent experiments, performed in triplicate.

Data set [4] relates to HUVECs. Nature of the data set: Endothelial cell tube formation on matrigel. The format is cell-based, human. The settings on record: 10 nM, three experiments in duplicate. How it is done:
The formation of vascular-like structures was assessed on a matrigel basement membrane matrix preparation. HUVEC (4 × 10^4 cells/well) were suspended in 300 µl pre-warmed serum-free medium. Diluents or effectors were added to the cell suspension prior to seeding cells on polymerized growth factor-reduced matrigel (100 µl/well) (Becton Dickinson). Assays were carried out for 6 hr at 37 °C in humidified air with 5% CO2 as described. To quantify tube formation, five random areas/well at 100× magnification were imaged and the number of tubes formed by cord-like structures exceeding 100 μm in length, measured using Axiovision 4.4 software (Carl Zeiss), were counted. The experiments were performed three times in duplicate.

The test system of data set [5] is Sarc cells. Nature of the data set: Growth, vascularization and circulating tumor cells of subcutaneous Sarc tumors in nude mice. Format: in vivo, Foxn1nu/nu female nude mice. The conditions noted are these: 6 mg/Kg i.p. every day for 10 days. As for the experimental part:
To evaluate the effect of RI-3 on tumor growth and vascularization, Sarc cells were injected, as a single-cell suspension (1 × 10^6 cells in 100 µl of sterile PBS, 97% viability), subcutaneously in the flanks of sixteen six-eight weeks old, Foxn1nu/nu female nude mice (Harlan). Animals were randomized into two 8-mice groups with the treatment group receiving 6 mg/kg RI-3 by intra-peritoneal injection every 24 hr, and the control group receiving an equivalent injected volume of vehicle (PBS) only. Time-dependent average weight was monitored every two days. The length and the width of tumors were measured at different time points with a calliper and volumes were calculated using the formula: ½ × (width)[2] × length (mm). After 10 days, blood samples (at least 500 µL/mouse) from the retro-orbital venous plexus of mice anesthetized with 1% isoflurane were collected using a heparinized capillary tube and processed for determination of the Circulating Tumor Cells (CTCs). Then, the animals were sacrificed, the excised tumors were fixed in buffered formalin and processed for paraffin sectioning. Tumor vascularization was assessed by counting vascular channels harbouring red blood cells on CD31 immuno-stained sections in 5 randomly chosen fields per section, in at least two sections per tumor at x 200 as described. Two additional experiments were carried out with the same experimental design by injecting GFP-tagged Sarc cells (1 × 10^6 cells/mouse) subcutaneously in the flanks of twenty-five six-eight weeks old, Foxn1nu/nu female nude mice (Harlan). Animals were treated with 6 mg/kg RI-3, 6 mg/kg RERF or vehicle by intra-peritoneal injection every 24 hr for 10 or 12 days. Tumor growth and the appearance of positive tumor lesions near tumors and in lungs were monitored as brightly visualized by GFP fluorescence with a MacroFluo fluorescence stereomicroscope (Leica). We searched for the presence of GFP-positive nodules on the entire surface of freshly isolated lungs. Lungs were also sliced at approximately 3-mm thickness to examine the parenchyma in depth, and the positive nodules were acquired at higher magnification.
To quantify CTCs, DNA from nucleated cells of murine blood samples (500 μl/mouse) was extracted using the QIAamp DNA Mini Kit (Qiagen), according to the manufacturer’s protocol. Quantitative RT-PCR (7900 HT Fast Real-Time PCR System, Applied Biosystems) was performed using 18 ng DNA and the SYBR Select Master Mix (Applied Biosystems) as described. Primers to human Alu-sequences [FW 5′-[…]-3′/RV 5′-CCCAGGCTGGAGTGCAGT-3′] were employed to a final concentration of 0.5 μM. The number of CTCs was calculated by comparing the obtained Ct with a standard amplification curve generated in spiking experiments (1 to 50 cells were collected by pipetting under microscopic control) which were included in every run. DNA from murine blood was included as a negative control.

“Ac-[dY][dR][Aib][dR]-NH2 (SMILES CC(=O)N[C@H](Cc1ccc(O)cc1)C(=O)N[C@H](CCCNC(=N)N)C(=O)NC(C)(C)C(=O)N[C@H](CCCNC(=N)N)C(N)=O) [RI-3]”: the “reduction of the extent of cell invasion (matrigel)” value in data set [1] is reported as 51%. In addition, the “reduction of matrigel invasion (slope of cell index)” value in data set [2] amounted to 47%. The “effect on cell proliferation and doubling times (xCELLigence)” value in data set [3] is listed as “no difference was apparent”. Further, in data set [4] (EBM plus 40 ng/mL VEGF165, 6 hr on matrigel), the “reduction of VEGF-dependent endothelial capillary-like structures” value was found to be 75%. Further, the “reduction of FBS-dependent endothelial capillary-like structures” value in data set [4] (EBM plus 10% FBS, 6 hr on matrigel) was 61%. Further, in data set [5], the “intra-tumoral microvessel density (CD31) vs vehicle-treated mice” value was “a reduced microvessel density” and the “treated mice in which no CTCs were detected” value is 4/8. Also, in data set [5] (eight mice), the “body weight vs vehicle-treated mice” value is recorded as “comparable”. The “volume of tumors after 10 days” value in data set [5] (eight mice, vehicle 330 +/− 163) is on record as 185 +/− 82 mm^3. The “circulating tumor cells in blood of CTC-positive mice” value in data set [5] (Alu Real-Time PCR, vehicle 10.04 +/− 3.7 in 8/8 mice) is recorded as 2.6 +/− 2.7 CTCs/mL.

For the origin of these results see paper PMC5430962, “Retro-inverso Urokinase Receptor Antagonists for the Treatment of Metastatic Sarcomas” (Scientific Reports, 2017).
